Converted amounts (≈) assume the structure as drawn.
Experiments:
[1] = Plasma protein binding in Sprague-Dawley rat at 2 to 21.2 mg/kg, po; format: ADME, organism-based; parameters: dose 2-21.2 mg/kg, route oral; conditions: read-out: PPB (converted)
Mus musculus [2] = experiment: AUC (0 to 10 hrs) in human RBC engrafted NOD-SCID IL-2Rgamma-null mouse at 5.7 mg/kg, po; format: ADME, organism-based, Plasma; parameters: time < 10 hr, dose 5.7 mg/kg, route oral; conditions: in vivo
Mus musculus [3] = experiment: AUC (0 to 10 hrs) in human RBC engrafted NOD-SCID IL-2Rgamma-null mouse infected with Plasmodium falciparum 3D7 0087/N9 at 5.7 mg/kg, po; format: ADME, organism-based, Plasma; parameters: time < 10 hr, dose 5.7 mg/kg, route oral; conditions: in vivo
[4] = Cmax in human RBC engrafted NOD-SCID IL-2Rgamma-null mouse infected with Plasmodium falciparum 3D7 0087/N9 at 5.7 mg/kg, po; format: ADME, organism-based; parameters: dose 5.7 mg/kg, route oral; conditions: in vivo
Plasma [5] = experiment: Plasma protein binding in human by chromatographic method; format: ADME, cell-free
Plasma [6] = experiment: Plasma protein binding in human by ultracentrifugation method; format: ADME, cell-free
Liver microsomes = experiment: Intrinsic clearance in human liver microsomes; format: ADME, Microsome
Liver = experiment: Intrinsic clearance in mouse liver microsomes; format: ADME, Microsome
Plasmodium falciparum [7] = experiment: Antimalarial activity against drug-sensitive Plasmodium falciparum D6 by [3H]hypoxanthine incorporation assay in presence of human serum; format: functional, organism-based
Plasmodium falciparum [8] = experiment: Antimalarial activity against drug-sensitive Plasmodium falciparum HB3 by [3H]hypoxanthine incorporation assay in presence of human serum; format: functional, organism-based
Plasmodium falciparum [9] = experiment: Antimalarial activity against chloroquine-resistant Plasmodium falciparum Dd2 by [3H]hypoxanthine incorporation assay in presence of human serum; format: functional, organism-based
Plasmodium falciparum [10] = experiment: Antimalarial activity against atovoquone-resistant Plasmodium falciparum TM90C2B by [3H]hypoxanthine incorporation assay in presence of human serum; format: functional, organism-based
Plasmodium falciparum [11] = experiment: Antimalarial activity against […] Plasmodium falciparum TM90C2A by [3H]hypoxanthine incorporation assay in presence of human serum; format: functional, organism-based
L1210 = experiment: Cytotoxicity against mouse L1210 cells; format: cell-based
[12] = Terminal elimination half life in Swiss outbred mouse at 0.4 mg/kg, po; format: ADME, organism-based; parameters: dose 0.4 mg/kg, route oral; conditions: in vivo, read-out: beta t1/2 (converted)
[13] = Terminal elimination half life in Swiss outbred mouse at 2 mg/kg, po; format: ADME, organism-based; parameters: dose 2 mg/kg, route oral; conditions: in vivo, read-out: beta t1/2 (converted)
[14] = Terminal elimination half life in Swiss outbred mouse at 10 mg/kg, po; format: ADME, organism-based; parameters: dose 10 mg/kg, route oral; conditions: in vivo, read-out: beta t1/2 (converted)
[15] = Cmax in Swiss outbred mouse at 0.4 mg/kg, po; format: ADME, organism-based; parameters: dose 0.4 mg/kg, route oral; conditions: in vivo
[16] = Cmax in Swiss outbred mouse at 2 mg/kg, po; format: ADME, organism-based; parameters: dose 2 mg/kg, route oral; conditions: in vivo
[17] = Cmax in Swiss outbred mouse at 10 mg/kg, po; format: ADME, organism-based; parameters: dose 10 mg/kg, route oral; conditions: in vivo
[18] = AUC (0 to infinity) in Swiss outbred mouse plasma at 0.4 mg/kg, po; format: ADME, organism-based; parameters: time infinity, dose 0.4 mg/kg, route oral
[19] = AUC (0 to infinity) in Swiss outbred mouse plasma at 2 mg/kg, po; format: ADME, organism-based; parameters: time infinity, dose 2 mg/kg, route oral
Mus musculus [20] = experiment: Time plasma concentration remained above 1 uM in Swiss outbred mouse plasma at 2 mg/kg, po; format: ADME, organism-based; parameters: dose 2 mg/kg, route oral; conditions: in vivo
Mus musculus [21] = experiment: Time plasma concentration remained above 1 uM in Swiss outbred mouse plasma at 10 mg/kg, po; format: ADME, organism-based; parameters: dose 10 mg/kg, route oral; conditions: in vivo
Mus musculus [22] = experiment: AUC (0 to 48 hrs) in Swiss outbred mouse plasma at 50 mg/kg, po; format: ADME, organism-based; parameters: time < 48 hr, dose 50 mg/kg, route oral; conditions: in vivo
[23] = Clearance in Sprague-Dawley rat at 1 mg/kg, iv; format: ADME, organism-based; parameters: dose 1 mg/kg, route intravenous; conditions: in vivo
[24] = Clearance in Sprague-Dawley rat at 4.5 mg/kg, iv; format: ADME, organism-based; parameters: dose 4.5 mg/kg, route intravenous; conditions: in vivo
[25] = Terminal elimination half life in Sprague-Dawley rat at 1 mg/kg, iv; format: ADME, organism-based; parameters: dose 1 mg/kg, route intravenous; conditions: in vivo, read-out: beta t1/2 (converted)
[26] = Volume of distribution in Sprague-Dawley rat at 4.5 mg/kg, iv; format: ADME, organism-based; parameters: dose 4.5 mg/kg, route intravenous; conditions: in vivo
[27] = Cmax in Sprague-Dawley rat at 2 mg/kg, po; format: ADME, organism-based; parameters: dose 2 mg/kg, route oral; conditions: in vivo
[28] = Cmax in Sprague-Dawley rat at 21.2 mg/kg, po; format: ADME, organism-based; parameters: dose 21.2 mg/kg, route oral; conditions: in vivo
[29] = AUC (0 to infinity) in Sprague-Dawley rat at 2 mg/kg, po; format: ADME, organism-based; parameters: time infinity, dose 2 mg/kg, route oral; conditions: plasma
[30] = AUC (0 to infinity) in Sprague-Dawley rat at 21.2 mg/kg, po; format: ADME, organism-based; parameters: time infinity, dose 21.2 mg/kg, route oral; conditions: plasma
[31] = Inhibition of Plasmodium berghei C-terminal hexa-His tagged DHODH expressed in Escherichia coli by DCIP reduction assay
Plasmodium falciparum [32] = experiment: Antimalarial activity against Plasmodium falciparum 3D7 by [3H]hypoxanthine incorporation assay in presence of human serum; format: functional, organism-based
Plasmodium falciparum [33] = experiment: Antimalarial activity against Plasmodium falciparum 3D7 by [3H]hypoxanthine incorporation assay in presence of albumax; format: functional, organism-based
[34] = Lipophilicity, log D of the compound at pH 7.4; format: physicochemical; conditions: buffer
[35] = Aqueous solubility of the compound at pH 6.5; format: physicochemical
[36] = target: T1, Dihydroorotate dehydrogenase (Plasmodium falciparum, UniProt Q54A96)
T1 sequence (Q54A96 whole entry): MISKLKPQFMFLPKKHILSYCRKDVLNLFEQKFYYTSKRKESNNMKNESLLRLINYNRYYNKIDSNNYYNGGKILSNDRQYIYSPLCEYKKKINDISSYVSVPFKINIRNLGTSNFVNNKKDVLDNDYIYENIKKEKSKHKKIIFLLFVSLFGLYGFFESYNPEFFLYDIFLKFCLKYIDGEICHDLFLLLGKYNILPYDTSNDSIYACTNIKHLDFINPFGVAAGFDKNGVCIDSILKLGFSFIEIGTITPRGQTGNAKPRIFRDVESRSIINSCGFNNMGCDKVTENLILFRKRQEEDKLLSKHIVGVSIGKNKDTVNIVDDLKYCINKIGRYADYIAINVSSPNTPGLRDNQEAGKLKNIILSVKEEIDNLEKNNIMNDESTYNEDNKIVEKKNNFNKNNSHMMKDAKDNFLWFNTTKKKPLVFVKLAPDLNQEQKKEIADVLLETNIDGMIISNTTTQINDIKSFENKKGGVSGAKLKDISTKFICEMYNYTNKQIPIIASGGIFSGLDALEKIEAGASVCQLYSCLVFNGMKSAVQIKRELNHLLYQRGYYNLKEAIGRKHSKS
Description: Inhibition of Plasmodium falciparum C-terminal hexa-His tagged DHODH expressed in Escherichia coli by DCIP reduction assay

[37] = target: Dihydroorotate dehydrogenase (quinone), mitochondrial (Homo sapiens, UniProt Q02127)
Description: Inhibition of human C-terminal hexa-His tagged DHODH expressed in Escherichia coli by DCIP reduction assay

in vivo [38] = conditions: NOD-SCID IL-2Rgamma-null, mouse, po, 5.7 mg/kg
in vivo [39] = conditions: Swiss outbred, mouse, po, 0.4 mg/kg
in vivo [40] = conditions: Swiss outbred, mouse, po, 2 mg/kg
in vivo [41] = conditions: Swiss outbred, mouse, po, 10 mg/kg
in vivo [42] = conditions: Swiss outbred, mouse, po, 50 mg/kg
in vivo [43] = conditions: Sprague-Dawley, rat, po, 2 mg/kg
in vivo [44] = conditions: Sprague-Dawley, rat, po, 21.2 mg/kg
[45] = Plasma protein binding in Swiss outbred mouse by ultracentrifugation; conditions: read-out: PPB (converted)

Sequence of Dihydroorotate dehydrogenase (quinone), mitochondrial (Q02127 whole entry): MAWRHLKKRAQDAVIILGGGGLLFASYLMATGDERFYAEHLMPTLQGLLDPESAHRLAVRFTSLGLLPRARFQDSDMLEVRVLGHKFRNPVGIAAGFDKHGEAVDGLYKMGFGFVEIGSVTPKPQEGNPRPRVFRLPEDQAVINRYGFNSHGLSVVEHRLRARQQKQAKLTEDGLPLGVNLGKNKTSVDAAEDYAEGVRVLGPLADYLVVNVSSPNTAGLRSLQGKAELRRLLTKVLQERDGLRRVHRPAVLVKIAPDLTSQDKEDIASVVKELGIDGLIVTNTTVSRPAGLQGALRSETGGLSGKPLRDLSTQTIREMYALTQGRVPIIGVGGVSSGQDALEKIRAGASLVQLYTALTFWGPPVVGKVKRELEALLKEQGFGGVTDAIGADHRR

Cc1cc(Nc2ccc(C(F)(F)F)cc2)n2nc(C(C)(F)F)nc2n1
fraction unbound [1]: 0.058 | AUC (Mus musculus [2]): 2521 µM·min | AUC (Mus musculus [3]): 2740 µM·min | Cmax [4]: 6.3 µM | PPB (Plasma [5]): 90.4% | PPB (Plasma [6]): 98.8% | Intrinsic clearance (Liver microsomes): < 5 µL/min/mg | Intrinsic clearance (Liver): 10.1 µL/min/mg | EC50 (Plasmodium falciparum [7]): 0.012 µM | EC50 (Plasmodium falciparum [8]): 0.0079 µM | EC50 (Plasmodium falciparum [9]): 0.013 µM | EC50 (Plasmodium falciparum [10]): 0.0046 µM | EC50 (Plasmodium falciparum [11]): 0.0079 µM | EC50 (L1210): > 50 µM | half-life [12]: 2.1 h | half-life [13]: 1.9 h | half-life [14]: 1.6 h | Cmax [15]: 0.2 µM | Cmax [16]: 1.85 µM | Cmax [17]: 9.86 µM | AUC(0-inf) [18]: 0.667 µM·h | AUC(0-inf) [19]: 9.48 µM·h | Time (Mus musculus [20]): 6 h | Time (Mus musculus [21]): 14 h | AUC (Mus musculus [22]): 14815 µM·min | clearance [23]: 1.39 L/h/kg | clearance [24]: 0.756 L/h/kg | half-life [25]: 6.1 h | Vd [26]: 2.9 L/kg | Cmax [27]: 0.9 µM | Cmax [28]: 11.4 µM | AUC(0-inf) [29]: 3.88 µM·h | AUC(0-inf) [30]: 342 µM·h | IC50 [31]: 2.4 µM | EC50 (Plasmodium falciparum [32]): 0.01 µM | EC50 (Plasmodium falciparum [33]): 0.0062 µM | logD [34]: 3.3 | solubility [35]: 70 µM (≈ 25 µg/mL) | IC50 [36]: 0.038 µM | IC50 [37]: > 100 µM | Tmax (in vivo [38]): 2.7 h | Tmax (in vivo [39]): 0.5 h | Tmax (in vivo [40]): 1 h | Tmax (in vivo [41]): 4 h | Tmax (in vivo [42]): 2 h | Tmax (in vivo [43]): 1 h | Tmax (in vivo [44]): 3.25 h | fraction unbound [45]: 0.026

From ChEMBL document CHEMBL1955725, “Structure-guided lead optimization of triazolopyrimidine-ring substituents identifies potent Plasmodium falciparum dihydroorotate dehydrogenase inhibitors with clinical candidate potential” (J Med Chem, 2011)
